The source of these data is patent publication EP0066351A1, “Arylethanol amine derivatives, their preparation and use in pharmaceutical compositions” (priority 1981, dated 1982).

The subject of one test is Rat hearts. The test is described as follows: Cardiac activity: rat hearts perfused by the Langendorff procedure. On the procedure: Rat hearts were perfused by the Langendorff procedure as follows: • Hearts were dissected free within 30 seconds of death and reverse perfused via the aorta and coronary vessels with Krebs-Ringer bicarbonate solution (pH 7.4, 37 °C) gassed with 95% oxygen:5% carbon dioxide at a flow rate between 8-12 cm^3/minute. Responses were observed after injection of drug dissolved in isotonic saline into the perfusion media.
Results are expressed as a percentage of the maximum response due to salbutamol.

Test [1] concerns Female CFLP mice. Nature of the test: Effect on energy expenditure and food intake of mice. It is filed as in vivo. To be noted: Mus musculus; for response vs control in vivo at 25.5 mg/kg / response vs control in vivo at 23.8 mg/kg / response vs control in vivo at 18.8 mg/kg / response vs control in vivo at 21.3 mg/kg / response vs control in vivo at 20.7 mg/kg / response vs control in vivo at 19.6 mg/kg / response vs control in vivo at 25.6 mg/kg / response vs control in vivo at 20.8 mg/kg / response vs control in vivo at 26.7 mg/kg / response vs control in vivo at 23.6 mg/kg / response vs control in vivo at 21.2 mg/kg: po, 21 h; for response vs control in vivo at 18.9 mg/kg: dose 18.9 mg/kg po, mice, 21 hours after dosing, percentage of mice dosed with water. Here is the method: Female CFLP mice each weighing approximately 24 g, were given food and water ad lib before and during the experiment. The compounds were dissolved in water by addition of one mole of hydrochloric acid per mole of compound and these solutions were administered orally to each of 12 mice. A further 12 mice were dosed orally with water. The mice were placed in boxes through which air was drawn and the oxygen content of the air leaving the boxes was measured. The energy expenditure of the mice was calculated for 21 hours after dosing from the volume of air leaving the boxes and its oxygen content following the principles described by J B de V Weir, J Physiol (London) 109, 1-9, (1949). The food intake of the mice was measured over this same period of 21 hours. The results are expressed as a percentage of the mean food intake or rate of energy expenditure of the mice dosed with water.

Test [2] relates to Female CFLP mice. The test is described as follows: Hypoglycaemic activity: blood glucose after subcutaneous glucose load in fasted mice. To be noted: glucose 1 g/kg s.c. 30 minutes after dosing, area over 2 hours vs water controls. The class given is in vivo. Here is the method: Female CFLP mice, each weighing approximately 25 g, were fasted for 24 hours prior to the study. The compounds under study were administered orally as an aqueous solution to each of 7 mice. 7 mice were given water as a control. 30 minutes later a blood sample (20 µl) was obtained from the tail for the analysis of blood glucose. Immediately after taking this blood sample, glucose (1 g/kg body weight) was administered subcutaneously to each mouse. Blood samples were then obtained from each mouse at 30 minute intervals for 120 minutes.
Compounds that produced a significant (P<0.05) reduction of blood glucose, compared with control mice given water, at any time interval, were considered active. The area under the blood glucose curve over the 2 hour period after the administration of the glucose was calculated for each compound and compared with the value for control animals.

Another test relates to platelets. The test is described as follows: Collagen-induced platelet aggregation in human whole blood in vitro. To be noted: collagen EC50 in presence of compound divided by control EC50, 3 mins preincubation. It is filed as cell-based. Here is the method: Collagen-induced platelet aggregation in human whole blood in vitro.
Collagen added to stirred citrated blood causes platelet aggregation. As the platelets aggregate, the concentration of single platelets falls. […] Inhibitors of aggregation, such as aspirin and dipyridamole, reduce the response to collagen.
Blood drawn from volunteers who denied taking aspirin within the previous seven days was mixed with 0.1 vol 129 mM trisodium citrate, dispensed into 0.5 ml aliquots and kept at 25°. Collagen (Hormon-Chemie, Munich) or 154 mM NaCl (control) was added to each aliquot of blood stirred at 1100 rpm in an aggregometer at 37° after 3 mins preincubation with compound or appropriate solvent. Aggregates were fixed by addition of 0.5 vol 4.5% formaldehyde or 0.05 vol phosphate-buffered glutaraldehyde. Single platelets were counted electronically. Responses, expressed as per cent fall in platelet count, were obtained to a range of collagen concentrations. The concentration producing a 50% maximal effect (EC50) was estimated from log10 concentration-response curves. Dose-ratios were calculated by dividing the EC50 obtained in the presence of compound under test by the control EC50.

The subject of a further test is rat ear. Nature of the test: Topical anti-inflammatory activity: croton oil induced inflammation in the rat ear. It is filed as in vivo. To be noted: dose 1.0 mg/rat ear, topical in 1% croton oil in tetrahydrofuran; ear weight after 6 hours; active = significant (5% level) reduction vs non-drug treated control. Here is the method:
The method used is based on that described by G. Tonelli et al (Endocrinology, 77, 625-634, 1965). An inflammation is induced in the rat ear by the application of 50 µl of a 1% solution of croton oil in tetrahydrofuran, test compounds being dissolved in the irritant vehicle. After 6 hours the inflammation is assessed by killing the animals and weighing the ears. Topical anti-inflammatory activity of a compound is generally considered to be shown when a significant (5% level) reduction in ear weight is seen compared to non-drug treated control.

[3] abbreviates: Rattus norvegicus, read-out: Heart Rate.
Setting [4] is: Rattus norvegicus, read-out: Heart Tension.
The mark [5] stands for this setting: read-out: Mean Energy Expenditure (%).
Setting [6] is: final concentration in whole blood 200 µM.
Setting [7] is: 10 μg added to perfusate, percentage of the maximum response due to salbutamol, perfused rat heart, read-out: Heart Rate.
Where [8] appears, read: 10 μg added to perfusate, percentage of the maximum response due to salbutamol, perfused rat heart, read-out: Heart Tension.
Where [9] appears, read: final concentration in whole blood 300 µM.

Structures can show the parent of a compound that is named as a salt. Where two headings read alike, the source gives them in different places.

`COc1ccc(C[C@@H](C)NC[C@H](O)c2cccc(C(F)(F)F)c2)cc1F` (racemic) [Example 9, N-[2-(3-Fluoro-4-methoxyphenyl)-1-methylethyl]-2-hydroxy-2-(3-trifluoromethylphenyl)ethanamine hydrobromide-(RR,SS) diastereoisomer]: the figures for the Emax at 0.01 mg with Rat hearts (setting [3]) and in the test with Rat hearts (setting [4]) were 16% and 4%, respectively. Also, the response vs control in vivo at 25.5 mg/kg with Female CFLP mice [1] (setting [5]) came to 115%; in the test on Female CFLP mice [1] (read-out: Mean Food Intake (%)) it was 78%. Besides, the “Reduction in area under Blood glucose curve (%)” value (“Reduction in area … (%)” for short) in the test with Female CFLP mice [2] (dose 2.5 μ moles/kg po) was found to be 18%.

Turning to `CC(=O)Oc1ccccc1C(=O)O` [Aspirin, reference compound], the Dose-ratio with platelets (setting [6]) is reported as 2.4 ± 0.3(3).

`OCCN(CCO)c1nc(N2CCCCC2)c2nc(N(CCO)CCO)nc(N3CCCCC3)c2n1` [Dipyridamole, reference compound]: the Dose-ratio in the test on platelets (setting [6]) was 3.7 ± 1.1(4).

Turning to `CC(Cc1ccc(OCc2ccccc2)cc1)NCC(O)c1cccc(C(F)(F)F)c1` (stereo not shown) [Example 1, N-[2-(4-Benzyloxyphenyl)-1-methylethyl]-2-hydroxy-2-(3-trifluoromethylphenyl)ethanamine], the Emax at 0.01 mg was 0% in the test with Rat hearts (setting [7]) and 7% in the test with Rat hearts (setting [8]). In addition, the response vs control in vivo at 23.8 mg/kg in the test on Female CFLP mice [1] (setting [5]) was found to be 115%; with Female CFLP mice [1] (read-out: Mean Food Intake (%)) it was 100%. Besides, the “Reduction in area … (%)” value with Female CFLP mice [2] (dose 12.5 μ moles/kg po) amounted to 36%.

As for `CC(Cc1ccc(O)cc1)NCC(O)c1cccc(C(F)(F)F)c1` (stereo not shown) [Example 2, N-[2-(4-Hydroxyphenyl)-1-methylethyl]-2-hydroxy-2-(3-trifluoromethylphenyl)ethanamine], the result with rat ear was Active. For the same molecule, the Emax at 0.01 mg is 73% in the test with Rat hearts (setting [3]) and 64% with Rat hearts (setting [4]). Besides, the Dose-ratio with platelets (setting [9]) stood at 2.2. Besides, the response vs control in vivo at 18.8 mg/kg amounted to 126% in the test on Female CFLP mice [1] (setting [5]) and 90% in the test on Female CFLP mice [1] (read-out: Mean Food Intake (%)). Also, in the test with Female CFLP mice [2] (dose 12.5 μ moles/kg po), the “Reduction in area … (%)” value is on record as 59%.

For `COc1ccc(CC(C)NCC(O)c2cccc(C(F)(F)F)c2)cc1OC` (stereo not shown) [Example 3, N-[2-(3,4-Dimethoxyphenyl)-1-methylethyl]-2-hydroxy-2-(3-trifluoromethylphenyl)ethanamine], the outcome in the test on rat ear was Active. The Emax at 0.01 mg was 14% in the test with Rat hearts (setting [7]) and 33% with Rat hearts (setting [8]). The response vs control in vivo at 21.3 mg/kg amounted to 109% in the test with Female CFLP mice [1] (setting [5]) and 100% in the test with Female CFLP mice [1] (read-out: Mean Food Intake (%)). The “Reduction in area … (%)” value in the test with Female CFLP mice [2] (dose 12.5 μ moles/kg po) came to 43%.

Regarding `COc1ccc(CC(C)NCC(O)c2cccc(C(F)(F)F)c2)cc1F` (stereo not shown) [Example 4, N-[2-(3-Fluoro-4-methoxyphenyl)-1-methylethyl]-2-hydroxy-2 (3-trifluoromethylphenyl)ethanamine], the Emax at 0.01 mg amounted to 0% in the test with Rat hearts (setting [3]) and 5% in the test on Rat hearts (setting [4]). The Dose-ratio in the test with platelets (setting [9]) is listed as 2.3. The response vs control in vivo at 20.7 mg/kg is 113% in the test with Female CFLP mice [1] (setting [5]) and 86% in the test with Female CFLP mice [1] (read-out: Mean Food Intake (%)). The “Reduction in area … (%)” value in the test on Female CFLP mice [2] (dose 1.0 μ moles/kg po) was found to be 28%.

In the case of `COc1ccc(CC(C)NCC(O)c2cccc(C(F)(F)F)c2)cc1` (stereo not shown) [Example 5, N-[2-(4-Methoxyphenyl)-1-methylethyl]-2-hydroxy-2-(3-trifluoromethylphenyl) ethanamine], the Emax at 0.01 mg in the test on Rat hearts (setting [3]) is 0%; in the test with Rat hearts (setting [4]), 8%. For the same molecule, the response vs control in vivo at 19.6 mg/kg was 119% in the test with Female CFLP mice [1] (setting [5]) and 88% in the test on Female CFLP mice [1] (read-out: Mean Food Intake (%)). The “Reduction in area … (%)” value in the test with Female CFLP mice [2] (dose 1.0 μ moles/kg po) was found to be 27%.

On to `COc1cc(CC(C)NCC(O)c2cccc(C(F)(F)F)c2)ccc1OCc1ccccc1` (stereo not shown) [Example 6, N-[2-(4-Benzyloxy-3-methoxyphenyl)-1-methylethyl]-2-hydroxy-2-(3-trifluoromethylphenyl)ethanamine], for which the Emax at 0.01 mg was 6% in the test on Rat hearts (setting [7]) and 25% with Rat hearts (setting [8]). In addition, the response vs control in vivo at 25.6 mg/kg came to 114% in the test on Female CFLP mice [1] (setting [5]) and 75% with Female CFLP mice [1] (read-out: Mean Food Intake (%)).

On to `CC(Cc1ccc(OCc2ccccc2)c(Cl)c1)NCC(O)c1cccc(C(F)(F)F)c1` (stereo not shown) [Example 7, N-[2-(4-Benzyloxy-3-chlorophenyl)-1-methylethyl]-2-hydroxy-2-(3-trifluoromethylphenyl)ethanamine], for which the Emax at 0.01 mg in the test on Rat hearts (setting [7]) and in the test on Rat hearts (setting [8]) was 0% throughout. In the test with Female CFLP mice [2] (dose 12.5 μ moles/kg po), the “Reduction in area … (%)” value was 28%.

As to `CC(Cc1ccc(O)c(Cl)c1)NCC(O)c1cccc(C(F)(F)F)c1` (stereo not shown) [Example 8, N-[2-(3-Chloro-4-hydroxyphenyl)-1-methylethyl]-2-hydroxy-2-(3-trifluoromethylphenyl)ethanamine], the Emax at 0.01 mg in the test with Rat hearts (setting [3]) is 23%; in the test on Rat hearts (setting [4]) it was 8%. Also, the response vs control in vivo at 20.8 mg/kg with Female CFLP mice [1] (setting [5]) was determined as 118%; with Female CFLP mice [1] (read-out: Mean Food Intake (%)) it was 88%. Further, the “Reduction in area … (%)” value with Female CFLP mice [2] (dose 2.5 μ moles/kg po) is listed as 11%.

Turning to `CCCCCCCCCCOc1ccc(CC(C)NCC(O)c2cccc(C(F)(F)F)c2)cc1` (stereo not shown) [Example 10, N-[2-(4-^nDecyloxyphenyl)-1-methylethyl)-2-hydroxy-2-(3-trifluoromethylphenyl) ethanamine], the response vs control in vivo at 26.7 mg/kg worked out at 118% with Female CFLP mice [1] (setting [5]) and 89% in the test on Female CFLP mice [1] (read-out: Mean Food Intake (%)). For the same molecule, the “Reduction in area … (%)” value in the test with Female CFLP mice [2] (dose 5.0 μ moles/kg po) was found to be 48%.

Turning to `CCCCCOc1ccc(CC(C)NCC(O)c2cccc(C(F)(F)F)c2)cc1` (stereo not shown) [Example 11, N-[2-(4-^nPentyloxyphenyl)-1-methylethyl]-2-hydroxy-2-(3-trifluoromethylphenyl) ethanamine], the response vs control in vivo at 23.6 mg/kg with Female CFLP mice [1] (setting [5]) came out at 118%; in the test with Female CFLP mice [1] (read-out: Mean Food Intake (%)) it was 106%. In the test with Female CFLP mice [2] (dose 2.5 μ moles/kg po), the “Reduction in area … (%)” value is on record as 47%.

As for `CC(Cc1ccc(OC(C)C)cc1)NCC(O)c1cccc(C(F)(F)F)c1` (stereo not shown) [Example 12, N-(2-(4-Isopropoxyphenyl)-1-methylethyl]-2-hydroxy-2-(3-trifluoromethylphenyl) ethanamine], the response vs control in vivo at 21.2 mg/kg was 122% in the test with Female CFLP mice [1] (setting [5]) and 94% with Female CFLP mice [1] (read-out: Mean Food Intake (%)). Moreover, in the test with Female CFLP mice [2] (dose 2.5 μ moles/kg po), the “Reduction in area … (%)” value was determined as 52%.

Take `COc1ccc(CCNCC(O)c2cccc(C(F)(F)F)c2)cc1` (stereo not shown) [Example 13, N-[2-(4-Methoxyphenyl)ethyl]-2-hydroxy-2-(3-trifluoromethylphenyl) ethanamine]: the response vs control in vivo at 18.9 mg/kg in the test on Female CFLP mice [1] (setting [5]) is 112%; with Female CFLP mice [1] (read-out: Mean Food Intake (%)), 104%. Further, in the test on Female CFLP mice [2] (dose 5.0 μ moles/kg po), the “Reduction in area … (%)” value is listed as 27%.

Consider `COc1ccc(CCC(C)(C)NCC(O)c2cccc(C(F)(F)F)c2)cc1` (stereo not shown) [Example 14, N-[3-(4-Methoxyphenyl)-1,1-dimethylpropyl]-2-hydroxy-2-(3-trifluoromethylphenyl) ethanamine], for which, in the test on Female CFLP mice [2] (dose 100 μ moles/kg po), the “Reduction in area … (%)” value amounted to 34%.
